# Target: T1, JNK1 (Homo sapiens, UniProt P45983)
# T1 construct: purchased Carna Biosciences
# Test: JNK1 biochemical assays (one or more of: time resolved fluorescence, Z'-LYTE Cascade, radioactive)
# Settings: Table 2; JNK1 IC50 activity level; read-out: Act. Level
# Method: JNK1 Assay. A 384-well time resolved fluorescence assay was used to monitor JNK1 activity. The JNK1 assay was run in the following assay buffer: 50 mM HEPES, 10 mM MgCl2, 1 mM EGTA, 2 mM DTT, and 0.01% Tween 20. To initiate the reaction 100 nM of ULight™-labeled 4EBP1 peptide (Perkin-Elmer) and 5 μM of ATP were mixed with 500 pM of JNK1 (Carna Biosciences), for a total assay volume of 20 μL in each well. The assay was incubated at room temperature for 1 h and terminated using a mixture of 30 mM EDTA and 4 nM Eu-anti-4EBP1, by adding 20 μL of stop solution to each well. Plates were read on a Perkin-Elmer Envision Reader.
# JNK1 Assay. The JNK1 Z′-LYTE® Cascade kinase assay was run in the following buffer: 50 mM HEPES at pH 7.5, 0.01% BRIJ-35, 10 mM MgCl2, 1 mM EGTA, and 1 mM DTT. […] The assay was incubated at room temperature for 1 h. […] The data was then read on a fluorescence plate reader and analyzed.
# JNK1 assay. The radioactive JNK kinase assay was carried out in a 96-well plate format at a final volume of 100 μL. […] JNK1 was diluted in the following dilution buffer (20 mM HEPES pH 7.6, 0.1 mM EDTA, 2.5 mM MgCl2, 0.004% (w/v) Triton X100, 2 μg/ml Leupeptin, 20 mM B-glycerol phosphate, 0.1 mM Na3VO4 dithiothreitol) and then pre-mixed with cJun diluted in the substrate solution buffer (20 mM HEPES pH 7.6, 50 mM NaCl, 0.1 mM EDTA, 2.5 mM MgCl2, 0.05% (w/v) Triton X100). […] The enzyme, substrate and inhibitor mixture was allowed to equilibrate at room temperature for 15 minutes. The reaction was started by the addition of 10 μL of 10×ATP in kinase buffer (130 mM MgCl2, 6 mM dithiothreitol, 150 mM para-nitrophenyl phosphate, 100 μCi/ml γ-[^33P]-ATP). Reactions were allowed to proceed for 60 minutes before precipitation of protein via trichloroacetic acid (7.2% TCA final). […] The precipitate was washed with Phosphate Buffered Saline and the amount of phosphate incorporated into cJun was quantified by scintillation counting using a Packard Topcount-NXT. All assays were conducted under conditions where phosphate incorporation was linear with respect to time and enzyme concentration.
# T1 sequence (P45983 whole entry): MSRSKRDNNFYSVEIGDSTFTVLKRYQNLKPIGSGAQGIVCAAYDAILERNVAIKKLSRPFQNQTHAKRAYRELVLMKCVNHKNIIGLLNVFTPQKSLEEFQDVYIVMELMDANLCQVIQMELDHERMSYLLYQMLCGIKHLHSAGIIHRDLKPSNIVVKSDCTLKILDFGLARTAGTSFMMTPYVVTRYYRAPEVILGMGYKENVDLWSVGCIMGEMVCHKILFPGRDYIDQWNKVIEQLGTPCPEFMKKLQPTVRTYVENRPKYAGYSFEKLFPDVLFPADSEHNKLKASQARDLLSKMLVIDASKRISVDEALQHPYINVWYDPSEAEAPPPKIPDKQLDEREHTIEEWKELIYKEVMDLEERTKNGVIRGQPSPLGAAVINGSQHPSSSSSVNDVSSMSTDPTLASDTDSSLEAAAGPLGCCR
row,IC50,Structure (SMILES)
1,200 to 800 nM,"NC(=O)c1cnc(NCc2ccc(F)cc2)nc1Nc1ccccc1 [Example B-67, 2-(4-fluorobenzylamino)-4-(phenylamino)pyrimidine-5-carboxamide]"
2,< 200 nM,"CS(=O)(=O)N[C@H]1CC[C@H](Nc2ncc(C(N)=O)c(Nc3ccccc3)n2)CC1 [Example B-5, 2-((1r,4r)-4-(methylsulfonamido)cyclohexylamino)-4-(phenylamino)pyrimidine-5-carboxamide]"
3,< 200 nM,"NC(=O)c1cnc(Nc2ccccc2Oc2ccccc2)nc1Nc1ccccc1 [Example B-22, 2-(2-phenoxyphenylamino)-4-(phenylamino)pyrimidine-5-carboxamide]"

# Same assay, conditions: Table 3; JNK1 IC50 activity level; read-out: Act. Level
row,IC50,Structure (SMILES)
1,< 200 nM,"CC[C@]1(O)CCC[C@@H](Nc2nc(N[C@H]3CC[C@H](OC)CC3)ncc2C#N)C1 [Example C-33, 4-((1R,3S)-3-ethyl-3-hydroxycyclohexylamino)-2-((1r,4R)-4-methoxycyclohexylamino) pyrimidine-5-carbonitrile]"
2,200 to 800 nM,"CCO[C@H]1CC[C@H](Nc2ncc(C#N)c(N[C@H]3CCOC3)n2)CC1 [Example C-37, 2-((1r,4S)-4-ethoxycyclohexylamino)-4-((S)-tetrahydrofuran-3-ylamino)pyrimidine-5-carbonitrile]"

# Same assay, conditions: one or more of the JNK1 biochemical assays; read-out: Act. Level (JNK1 IC50 activity level)
row,IC50,Structure (SMILES)
1,< 200 nM,"NC(=O)c1cnc(N[C@H]2CC[C@H](O)CC2)nc1NC1(C2CC2)CC1 [Example 355, 4-(bi(cycloprop)ylamino)-2-((1r,4r)-4-hydroxycyclohexylamino)pyrimidine-5-carboxamide]"
2,< 200 nM,"NC(=O)c1cnc(N[C@H]2CC[C@H](OCC(F)(F)F)CC2)nc1NC12CC(C1)C2 [Example 419, 4-(bicyclo[1.1.1]pentan-1-ylamino)-2-((1r,4r)-4-(2,2,2-trifluoroethoxy)cyclohexylamino)pyrimidine-5-carboxamide]"
3,< 200 nM,"CN(C)C(=O)[C@H]1CC[C@H](Nc2ncc(C(N)=O)c(NC3CCC3)n2)CC1 [Example 437, 4-(cyclobutylamino)-2-((1r,4r)-4-(dimethylcarbamoyl)cyclohexylamino)pyrimidine-5-carboxamide]"
4,< 200 nM,"NC(=O)c1cnc(N[C@H]2CC[C@H](OCC(F)(F)F)CC2)nc1N[C@@H]1CCC[C@H]1CO [Example 331, 4-((1R,2R)-2-(hydroxymethyl)cyclopentylamino)-2-((1r,4R)-4-(2,2,2-trifluoroethoxy)cyclohexylamino)pyrimidine-5-carboxamide]"
5,< 200 nM,"CC(C)(Nc1nc(N[C@H]2CCC[C@@H](O)C2)ncc1C(N)=O)C1CC1 [Example 457, 4-(2-cyclopropylpropan-2-ylamino)-2-((1S,3R)-3-hydroxycyclohexylamino)pyrimidine-5-carboxamide]"
6,< 200 nM,"CO[C@H]1CC[C@H](Nc2ncc(C(N)=O)c(NC3CCC3C)n2)CC1 (stereo partly drawn) [Example 242, 2-((1r,4r)-4-methoxycyclohexylamino)-4-(2-methylcyclobutylamino)pyrimidine-5-carboxamide]"
7,< 200 nM,"CC(C)(Nc1nc(NC23CCC(O)(CC2)CC3)ncc1C(N)=O)C1CC1 [Example 479, 4-(2-cyclopropylpropan-2-ylamino)-2-(4-hydroxybicyclo[2.2.2]octan-1-ylamino)pyrimidine-5-carboxamide]"
8,< 200 nM,"CC(C)(C)Nc1nc(NC2CCC(F)(F)CC2)ncc1C(N)=O [Example 318, 4-(tert-butylamino)-2-(4,4-difluorocyclohexylamino)pyrimidine-5-carboxamide]"

# Same assay, conditions: tested in one or more of the JNK1 biochemical assays; read-out: Act. Level (JNK1 biochemical assay IC50 activity level)
row,IC50,Structure (SMILES)
1,< 200 nM,"NC(=O)c1cnc(N[C@H]2CC[C@H](O)CC2)nc1NC1CCCC1 [Example A-148, 4-(cyclopentylamino)-2-((1r,4r)-4-hydroxycyclohexylamino)pyrimidine-5-carboxamide]"
2,< 200 nM,"CO[C@H]1CC[C@H](Nc2ncc(C(N)=O)c(N[C@H]3CCCC[C@@](C)(O)C3)n2)CC1 [Example A-185, 4-((1S,3R)-3-hydroxy-3-methylcycloheptylamino)-2-((1r,4S)-4-methoxycyclohexylamino)pyrimidine-5-carboxamide]"

# From patent publication US12129237B2, “Substituted diaminocarboxamide and diaminocarbonitrile pyrimidines, compositions thereof, and methods of treatment therewith” (SIGNAL PHARMACEUTICALS, LLC, priority 2011, dated 2024)
